Measurements as given in US11214594B2, “Antimicrobial peptide having synergistic antibacterial effect with antibiotics on multidrug resistant bacteria, and use thereof” (priority 2016, dated 2022).
≈ marks a conversion by molar mass, not a printed value. Like-named read-outs stand apart in the source and are kept apart here. Where a SMILES comes first, the peptide text is derived from it. [ ]: non-standard residue; d: D form.

Experiments:
E. coli [1] = experiment: MIC of antibiotic during combined treatment with antimicrobial peptide; assay type: cell-based, Escherichia coli; settings: E. coli
Outline: (§1)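 First, antibiotic solution is diluted with MH medium; next, the dilution is dispensed into wells containing peptide; finally, the orientation is swapped and MIC of each mixture determined.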

MDRAB 12036 = assay type: cell-based, Acinetobacter baumannii
Outline: (§2)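 Broth microdilution in MH medium: strains diluted to 2×10^6 CFU were mixed with equal volumes of twofold serial peptide dilutions in MH medium. MIC was taken as the lowest peptide concentration preventing bacterial growth.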

B. subtilis = experiment: microbe, parasite or virus in culture; assay type: cell-based, Bacillus subtilis
Outline: as §2

A. baumannii = experiment: MIC of antibiotic during combined treatment with antimicrobial peptide; assay type: cell-based, Acinetobacter baumannii; settings: for Antibiotic MIC, Erythromycin / Antibiotic MIC, Linezolid / Antibiotic MIC, Vancomycin: A. baumannii
Outline: as §1

MDREC 1229 [2] = assay type: cell-based, Escherichia coli
Outline: (§3)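 Broth microdilution in MH medium; strains were diluted to 2×10^6 CFU per ml before plating. Peptide was serially diluted stepwise at 2:1 starting from its MIC, and MH-diluted antibiotic was then added to determine MIC. The reversed arrangement was also tested.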

E. coli [3] = assay type: cell-based, Escherichia coli; settings: E. coli
Outline: as §3

MDREC 1229 [4] = experiment: microbe, parasite or virus in culture; assay type: cell-based, Escherichia coli
Outline: as §2

E. coli [5] = experiment: microbe, parasite or virus in culture; assay type: cell-based, Escherichia coli; settings: 16 h
Outline: as §2

[6] = combined with peptide at 1 μg/ml
[7] = combined with peptide at 2 μg/ml
[8] = combined with peptide at 4 μg/ml
[9] = combined with peptide at 6 μg/ml
[10] = combined with peptide at 8 μg/ml
[11] = combined with peptide at 16 μg/ml
[12] = combined with peptide at 32 μg/ml
[13] = combined with peptide at 64 μg/ml

## CC[C@H](C)[C@H](NC(=O)[C@H](CCCCN)NC(=O)[C@H](Cc1c[nH]c2ccccc12)NC(=O)[C@@H](N)CCCNC(=N)N)C(=O)N[C@@H](Cc1ccccc1)C(=O)N[C@@H](CCCCN)C(=O)N[C@@H](CCCCN)C(=O)N[C@H](C(=O)N[C@H](CC(C)C)C(=O)N[C@@H](CCCCN)C(=O)N[C@@H](CC(C)C)C(=O)N[C@@H](CC(C)C)C(=O)N[C@@H](Cc1c[nH]cn1)C(=O)N[C@@H](CCCCN)C(=O)N[C@@H](C)C(=O)N[C@@H](CCCCN)C(=O)N[C@@H](CCCCN)C(=O)N[C@@H](Cc1c[nH]c2ccccc12)C(N)=O)[C@@H](C)CC [PapMA-22, RWK IFK KIl KLL HKA KKW-NH2] (H-RWKIFKKI[dL]KLLHKAKKW-NH2; N-terminus assumed)
E. coli [1]; linezolid combined with peptide at 2 μg/ml
  Antibiotic MIC, Linezolid: 128 µg/mL
E. coli [1]; linezolid combined with peptide at 4 μg/ml
  Antibiotic MIC, Linezolid: 64 µg/mL
E. coli [1]; linezolid combined with peptide at 6 μg/ml
  Antibiotic MIC, Linezolid: 32 µg/mL
E. coli [1]; linezolid combined with peptide at 8 μg/ml
  Antibiotic MIC, Linezolid: 32 µg/mL
E. coli [1]; linezolid combined with peptide at 16 μg/ml
  Antibiotic MIC, Linezolid: 16 µg/mL
E. coli [1]; linezolid combined with peptide at 32 μg/ml
  Antibiotic MIC, Linezolid: 0 µg/mL
E. coli [1]; linezolid combined with peptide at 64 μg/ml
  Antibiotic MIC, Linezolid: 0 µg/mL
E. coli [1]; vancomycin combined with peptide at 1 μg/ml
  Antibiotic MIC, Vancomycin: >128 µg/mL
E. coli [1]; vancomycin combined with peptide at 2 μg/ml
  Antibiotic MIC, Vancomycin: >128 µg/mL
E. coli [1]; vancomycin combined with peptide at 4 μg/ml
  Antibiotic MIC, Vancomycin: 128 µg/mL
E. coli [1]; vancomycin combined with peptide at 6 μg/ml
  Antibiotic MIC, Vancomycin: 64 µg/mL
E. coli [1]; vancomycin combined with peptide at 8 μg/ml
  Antibiotic MIC, Vancomycin: 32 µg/mL
E. coli [1]; vancomycin combined with peptide at 16 μg/ml
  Antibiotic MIC, Vancomycin: 16 µg/mL
E. coli [1]; vancomycin combined with peptide at 32 μg/ml
  Antibiotic MIC, Vancomycin: 0 µg/mL
E. coli [1]; vancomycin combined with peptide at 64 μg/ml
  Antibiotic MIC, Vancomycin: 0 µg/mL
MDRAB 12036
  Minimal inhibitory concentration MIC: 32 µg/mL (≈ 13.5 µM)
B. subtilis
  Minimal inhibitory concentration MIC: >128 µg/mL
A. baumannii; A. baumannii and MDRAB 12035
  Synergistic effect of antibacterial activity with existing antibiotics compared with PapMA-1: level similar to that of PapMA-1 peptide
A. baumannii; [6]
  Antibiotic MIC, Erythromycin: 32 µg/mL
  Antibiotic MIC, Linezolid: >128 µg/mL
  Antibiotic MIC, Vancomycin: >128 µg/mL
A. baumannii; [7]
  Antibiotic MIC, Erythromycin: 32 µg/mL
  Antibiotic MIC, Linezolid: >128 µg/mL
  Antibiotic MIC, Vancomycin: 128 µg/mL
A. baumannii; [8]
  Antibiotic MIC, Erythromycin: 8 µg/mL
  Antibiotic MIC, Linezolid: 32 µg/mL
  Antibiotic MIC, Vancomycin: 64 µg/mL
A. baumannii; [9]
  Antibiotic MIC, Erythromycin: 2 µg/mL
  Antibiotic MIC, Linezolid: 16 µg/mL
  Antibiotic MIC, Vancomycin: 32 µg/mL
A. baumannii; [10]
  Antibiotic MIC, Erythromycin: 1 µg/mL
  Antibiotic MIC, Linezolid: 8 µg/mL
  Antibiotic MIC, Vancomycin: 8 µg/mL
A. baumannii; [11]
  Antibiotic MIC, Erythromycin: 0 µg/mL
  Antibiotic MIC, Linezolid: 0 µg/mL
  Antibiotic MIC, Vancomycin: 0 µg/mL
A. baumannii; [12]
  Antibiotic MIC, Erythromycin: 0 µg/mL
  Antibiotic MIC, Linezolid: 0 µg/mL
  Antibiotic MIC, Vancomycin: 0 µg/mL
A. baumannii; [13]
  Antibiotic MIC, Erythromycin: 0 µg/mL
  Antibiotic MIC, Linezolid: 0 µg/mL
  Antibiotic MIC, Vancomycin: 0 µg/mL
MDREC 1229 [2]; erythromycin 32 μg/ml (Conc./MIC 1/8)
  Peptide MIC during treatment with antibiotic: 2 µg/mL
MDREC 1229 [2]; erythromycin 64 μg/ml (Conc./MIC 1/4)
  Peptide MIC during treatment with antibiotic: 2 µg/mL
MDREC 1229 [2]; erythromycin […] (Conc./MIC 1)
  Peptide MIC during treatment with antibiotic: 0 µg/mL
MDREC 1229 [2]; erythromycin […] (Conc./MIC 1/2)
  Peptide MIC during treatment with antibiotic: 1 µg/mL
MDREC 1229 [2]; linezolid 64 μg/ml (Conc./MIC 1/8)
  Peptide MIC during treatment with antibiotic: 8 µg/mL
MDREC 1229 [2]; linezolid 512 μg/ml (Conc./MIC 1)
  Peptide MIC during treatment with antibiotic: 0 µg/mL
MDREC 1229 [2]; linezolid […] (Conc./MIC 1/2)
  Peptide MIC during treatment with antibiotic: 1 µg/mL
MDREC 1229 [2]; linezolid […] (Conc./MIC 1/4)
  Peptide MIC during treatment with antibiotic: 4 µg/mL
MDREC 1229 [2]; vancomycin 512 μg/ml (Conc./MIC 1/2)
  Peptide MIC during treatment with antibiotic: 2 µg/mL
MDREC 1229 [2]; vancomycin 1024 μg/ml (Conc./MIC 1)
  Peptide MIC during treatment with antibiotic: 2 µg/mL
MDREC 1229 [2]; vancomycin […] (Conc./MIC 1/4)
  Peptide MIC during treatment with antibiotic: 4 µg/mL
MDREC 1229 [2]; vancomycin […] (Conc./MIC 1/8)
  Peptide MIC during treatment with antibiotic: 8 µg/mL
E. coli [3]; with Erythromycin […] (Conc./MIC 1)
  Peptide MIC: 0 µg/mL
E. coli [3]; with Linezolid […] (Conc./MIC 1)
  Peptide MIC: 0 µg/mL
E. coli [3]; with Vancomycin 1024 μg/ml (Conc./MIC 1)
  Peptide MIC: 0 µg/mL
MDREC 1229 [4]
  Minimal inhibitory concentration MIC: 32 µg/mL (≈ 13.5 µM)
  Peptide MIC, peptide alone: 32 µg/mL
E. coli [5]
  Minimal inhibitory concentration MIC: 32 µg/mL (≈ 13.5 µM)
